{"source": "paper PMC12016938", "about": "“A small molecule PKCε inhibitor reduces hyperalgesia induced by paclitaxel or opioid withdrawal” (JCI Insight, 2025)", "key": {"[1]": {"system": "paclitaxel-induced hyperalgesia", "test": "Paclitaxel-induced hyperalgesia, Randall-Selitto paw pressure test", "conditions": "for Force applied that led to paw withdrawal: one paw"}, "[2]": {"test": "LogD determination (PBS/n-octanol)", "assay_type": "physicochemical", "conditions": "1:1 0.1M PBS/n-octanol, mean of duplicate, 37°C", "experimental": "LogD determination. Test compounds were diluted by adding 12 μL of 1 mM DMSO stocks to 1,188 μL of 1:1 0.1M PBS/n-octanol in duplicate. Samples were vortexed, shaken at 600 rpm for 3 hours at 37°C. Samples (100 μL) of each phase layer were extracted in 3 volumes of acetonitrile for 15 minutes, centrifuged at 10,000g for 10 minutes, and then analyzed by LC-MS. The ratio of concentrations measured in the organic and aqueous phases was log10 transformed to determine the logD."}}, "note": "Several values for one entry are separate records, joined by “and”; a condition that tells them apart may be missing. Equal values may be shown once."}
{"smiles": "N[C@H](CNC(=O)C1(c2ccc(Cl)cc2)CCCC1)c1ccc(C(=O)Nc2ccncc2)cc1", "note": "[CP612]", "values": [{"measurement": "Force applied that led to paw withdrawal", "setting": "[1]; 0min (24 h after last paclitaxel, before CP612)", "value": "95 grams and 102.5 grams and 100 grams and 97.5 grams and 101.7 grams"}, {"measurement": "Force applied that led to paw withdrawal", "setting": "[1]; 15min after CP612 20 mg/kg intraperitoneally, 20 mg/kg", "value": "120 grams and 125 grams and 110 grams and 115 grams and 117.5 grams"}, {"measurement": "Force applied that led to paw withdrawal", "setting": "[1]; 30min after CP612 20 mg/kg intraperitoneally, 20 mg/kg", "value": "110 grams and 122.5 grams and 117.5 grams and 112.5 grams"}, {"measurement": "Force applied that led to paw withdrawal", "setting": "[1]; 60min after CP612 20 mg/kg intraperitoneally, 20 mg/kg", "value": "111.7 grams and 120 grams and 116.7 grams and 113.3 grams and 121.7 grams"}, {"measurement": "Force applied that led to paw withdrawal", "setting": "[1]; 120min after CP612 20 mg/kg intraperitoneally, 20 mg/kg", "value": "101.7 grams and 116.7 grams and 111.7 grams and 103.3 grams and 96.7 grams and 115 grams"}, {"measurement": "Force applied that led to paw withdrawal", "setting": "[1]; 24h after CP612 20 mg/kg intraperitoneally, 20 mg/kg", "value": "85 grams and 116.7 grams and 90 grams and 91.7 grams and 96.7 grams"}, {"measurement": "Force applied that led to paw withdrawal", "setting": "[1]; baseline (before paclitaxel and CP612)", "value": "127.5 grams and 125 grams and 140 grams"}, {"measurement": "Effect on paclitaxel-induced hyperalgesia", "setting": "[1]; male rats, CP612 20 mg/kg i.p., 15, 30, 60 and 120 minutes", "value": "attenuated"}, {"measurement": "Decrease in paclitaxel-induced hyperalgesia 1 day after CP612", "setting": "[1]; male rats, CP612 20 mg/kg i.p., 24 hours", "value": "dissipated"}, {"measurement": "logD at 3 h", "setting": "[2]", "value": "1.5 ± 0.75"}, {"measurement": "logD", "setting": "[2]", "value": 1.504}]}
